PMC5218480 (PLoS ONE, 2017)

Tested on: MV-4-11 cells
Assay: Gene expression microarray analysis (Affymetrix PrimeView) and GSEA
Assay type: cell-based, human
Design: RFU PODN (11730768_x_at) / Fold change /veh PODN (11730768_x_at) / RFU LINC00158 (11744669_a_at) / Fold change /veh LINC00158 (11744669_a_at) / RFU DUSP10 (11751237_a_at) / Fold change /veh DUSP10 (11751237_a_at) / RFU ID3 (11757404_x_at) / Fold change /veh ID3 (11757404_x_at) / RFU PLEKHG5 (11737974_s_at) / Fold change /veh PLEKHG5 (11737974_s_at) / RFU LRRC4B (11730491_at) / Fold change /veh LRRC4B (11730491_at) / RFU GIMAP4 (11747438_a_at) / Fold change /veh GIMAP4 (11747438_a_at) / RFU KRT8 (11758183_x_at) / Fold change /veh KRT8 (11758183_x_at) / RFU CNN1 (11734310_a_at) / Fold change /veh CNN1 (11734310_a_at) / RFU VPS37D (11726825_at) / Fold change /veh VPS37D (11726825_at) / RFU C10orf10 (11716522_x_at) / Fold change /veh C10orf10 (11716522_x_at) / RFU KIR2DL2 /// KIR2DL4 /// KIR2DL5A /// KIR2DL5B /// KIR2DS1 /// KIR2DS2 /// KIR2DS3 /// KIR2DS4 /// KIR3DL3 /// KIR3DL3 /// KIR3DS1 (11738374_at) / Fold change /veh KIR2DL2 /// KIR2DL4 /// KIR2DL5A /// KIR2DL5B /// KIR2DS1 /// KIR2DS2 /// KIR2DS3 /// KIR2DS4 /// KIR3DL3 /// KIR3DL3 /// KIR3DS1 (11738374_at) / RFU C1QL1 (11718748_at) / Fold change /veh C1QL1 (11718748_at) / RFU TMPRSS4 (11747572_a_at) / Fold change /veh TMPRSS4 (11747572_a_at) / RFU HAMP (11756126_x_at) / Fold change /veh HAMP (11756126_x_at) / RFU RNFT2 (11725882_a_at) / Fold change /veh RNFT2 (11725882_a_at) / RFU NR4A2 (11747474_a_at) / Fold change /veh NR4A2 (11747474_a_at) / RFU ABCC12 (11746883_a_at) / Fold change /veh ABCC12 (11746883_a_at) / RFU TMEM136 (11760407_x_at) / Fold change /veh TMEM136 (11760407_x_at) / RFU CLDN22 /// WWC2 (11732394_at) / Fold change /veh CLDN22 /// WWC2 (11732394_at) / RFU HLA-DPB1 (11760878_x_at) / Fold change /veh HLA-DPB1 (11760878_x_at) / RFU SPINT1 (11716480_a_at) / Fold change /veh SPINT1 (11716480_a_at) / RFU GAP43 (11754022_s_at) / Fold change /veh GAP43 (11754022_s_at) / RFU A4GNT (11735810_at) / Fold change /veh A4GNT (11735810_at) / RFU PRB3 (11715151_x_at) / Fold change /veh PRB3 (11715151_x_at) / RFU TUBB4B (11761932_at) / Fold change /veh TUBB4B (11761932_at) / RFU CAPN14 (11732068_a_at) / Fold change /veh CAPN14 (11732068_a_at) / RFU TMCC2 (11721928_a_at) / Fold change /veh TMCC2 (11721928_a_at) / RFU IRGQ (11745062_a_at) / Fold change /veh IRGQ (11745062_a_at) / RFU FAM174B (11720279_a_at) / Fold change /veh FAM174B (11720279_a_at) / RFU TMPRSS4 (11748680_a_at) / Fold change /veh TMPRSS4 (11748680_a_at) / RFU FAM212B (11763350_a_at) / Fold change /veh FAM212B (11763350_a_at) / RFU PLEKHG5 (11743358_a_at) / Fold change /veh PLEKHG5 (11743358_a_at) / RFU ZSCAN30 (11745921_a_at) / Fold change /veh ZSCAN30 (11745921_a_at) / RFU CMKLR1 (11741424_a_at) / Fold change /veh CMKLR1 (11741424_a_at) / RFU LOC101060620 /// MAPK8IP1 (11723275_at) / Fold change /veh LOC101060620 /// MAPK8IP1 (11723275_at) / RFU SPTSSB (11747773_x_at) / Fold change /veh SPTSSB (11747773_x_at) / RFU PRSS12 (11739890_at) / Fold change /veh PRSS12 (11739890_at) / RFU BIN1 (11741810_x_at) / Fold change /veh BIN1 (11741810_x_at) / RFU WNT11 (11732464_a_at) / Fold change /veh WNT11 (11732464_a_at) / RFU C10orf10 (11716521_a_at) / Fold change /veh C10orf10 (11716521_a_at) / RFU C5orf56 (11738089_at) / Fold change /veh C5orf56 (11738089_at) / RFU CYB561 (11721691_x_at) / Fold change /veh CYB561 (11721691_x_at) / RFU ANKRD19P (11752326_a_at) / Fold change /veh ANKRD19P (11752326_a_at) / RFU OR2T12 /// OR2T33 /// OR2T8 (11738714_s_at) / Fold change /veh OR2T12 /// OR2T33 /// OR2T8 (11738714_s_at) / RFU VCAN (11748164_a_at) / Fold change /veh VCAN (11748164_a_at) / RFU JSRP1 (11732532_at) / Fold change /veh JSRP1 (11732532_at) / RFU KRTAP10-11 (11738290_x_at) / Fold change /veh KRTAP10-11 (11738290_x_at) / RFU MYO3A (11730013_a_at) / Fold change /veh MYO3A (11730013_a_at) / RFU EBF3 (11725865_a_at) / Fold change /veh EBF3 (11725865_a_at) / RFU CAMK2N1 (11719241_x_at) / Fold change /veh CAMK2N1 (11719241_x_at) / RFU C5orf56 (11738088_a_at) / Fold change /veh C5orf56 (11738088_a_at) / RFU OLFML3 (11715873_a_at) / Fold change /veh OLFML3 (11715873_a_at) / RFU LOC100653217 /// NTM (11731650_a_at) / Fold change /veh LOC100653217 /// NTM (11731650_a_at) / RFU MAPK11 (11762145_a_at) / Fold change /veh MAPK11 (11762145_a_at) / RFU FIZ1 (11724087_x_at) / Fold change /veh FIZ1 (11724087_x_at) / RFU OASL (11726364_x_at) / Fold change /veh OASL (11726364_x_at) / RFU SOX15 (11748057_x_at) / Fold change /veh SOX15 (11748057_x_at) / RFU CD79A (11719716_a_at) / Fold change /veh CD79A (11719716_a_at) / RFU HIST1H1D (11736915_at) / Fold change /veh HIST1H1D (11736915_at) / RFU CASKIN2 (11723855_a_at) / Fold change /veh CASKIN2 (11723855_a_at) / RFU LOC730098 (11760151_x_at) / Fold change /veh LOC730098 (11760151_x_at) / RFU OR4N2 (11742367_at) / Fold change /veh OR4N2 (11742367_at) / RFU PRRT2 (11749266_a_at) / Fold change /veh PRRT2 (11749266_a_at) / RFU SNX32 (11753110_a_at) / Fold change /veh SNX32 (11753110_a_at) / RFU CDHR5 (11726645_a_at) / Fold change /veh CDHR5 (11726645_a_at) / RFU RCAN1 (11760418_a_at) / Fold change /veh RCAN1 (11760418_a_at) / RFU FAM167A (11723789_a_at) / Fold change /veh FAM167A (11723789_a_at) / RFU FAM26E (11764081_at) / Fold change /veh FAM26E (11764081_at) / RFU ISYNA1 (11749810_s_at) / Fold change /veh ISYNA1 (11749810_s_at) / RFU ACY1 (11761880_at) / Fold change /veh ACY1 (11761880_at) / RFU 11764098_at / Fold change /veh 11764098_at / RFU SAMD14 (11745864_x_at) / Fold change /veh SAMD14 (11745864_x_at) / RFU NPB (11741838_a_at) / Fold change /veh NPB (11741838_a_at) / RFU TMPRSS6 (11731388_a_at) / Fold change /veh TMPRSS6 (11731388_a_at) / RFU KRTAP10-2 (11738614_at) / Fold change /veh KRTAP10-2 (11738614_at) / RFU ARHGAP8 /// PRR5-ARHGAP8 (11727945_x_at) / Fold change /veh ARHGAP8 /// PRR5-ARHGAP8 (11727945_x_at) / RFU KRTAP5-7 /// NADSYN1 (11734609_at) / Fold change /veh KRTAP5-7 /// NADSYN1 (11734609_at) / RFU RASL12 (11751679_a_at) / Fold change /veh RASL12 (11751679_a_at) / RFU CDKN2B (11736163_a_at) / Fold change /veh CDKN2B (11736163_a_at) / RFU PRF1 (11729649_at) / Fold change /veh PRF1 (11729649_at) / RFU, ZNF638 /// ZNF638-IT1 / Fold change vs veh, ZNF638 /// ZNF638-IT1 / RFU, PANK3 / Fold change vs veh, PANK3 / RFU, SH3YL1 / Fold change vs veh, SH3YL1 / RFU, ZEB2 / Fold change vs veh, ZEB2 / RFU, NRIP1 / Fold change vs veh, NRIP1 / RFU, PTTG1IP / Fold change vs veh, PTTG1IP / RFU, CAPN2 / Fold change vs veh, CAPN2 / RFU, MED14 / Fold change vs veh, MED14 / RFU, SNORA58 / Fold change vs veh, SNORA58 / RFU, C1orf63 / Fold change vs veh, C1orf63 / RFU, LRRFIP1 / Fold change vs veh, LRRFIP1 / RFU, NDUFAF7 / Fold change vs veh, NDUFAF7 / RFU, SLC12A2 / Fold change vs veh, SLC12A2 / RFU, IBTK / Fold change vs veh, IBTK / RFU, ESF1 / Fold change vs veh, ESF1 / Fold change vs veh, TMEM50B / RFU, TAOK1 / Fold change vs veh, TAOK1 / RFU, ACBD3 / Fold change vs veh, ACBD3 / RFU, TMA16 / Fold change vs veh, TMA16 / RFU, RWDD3 / Fold change vs veh, RWDD3 / RFU, BCAT1 / Fold change vs veh, BCAT1 / RFU, EDEM3 / Fold change vs veh, EDEM3 / RFU, TMEM33 / Fold change vs veh, TMEM33 / RFU, WDR75 / Fold change vs veh, WDR75 / RFU, AHCTF1 / Fold change vs veh, AHCTF1 / RFU, TFRC / Fold change vs veh, TFRC / RFU, ZDHHC17 / Fold change vs veh, ZDHHC17 / RFU, NOM1 / Fold change vs veh, NOM1 / RFU, ARL8B / Fold change vs veh, ARL8B / RFU, ZBTB11 / Fold change vs veh, ZBTB11 / RFU, TAMM41 / Fold change vs veh, TAMM41 / RFU, KIAA1704 /// LOC100996395 / Fold change vs veh, KIAA1704 /// LOC100996395 / RFU, ING1 / Fold change vs veh, ING1 / RFU, TRMT61B / Fold change vs veh, TRMT61B / RFU, FUBP3 / Fold change vs veh, FUBP3 / RFU, TP53 / Fold change vs veh, TP53 / RFU, TNKS2 / Fold change vs veh, TNKS2 / RFU, ZFP14 / Fold change vs veh, ZFP14 / RFU, ACTR2 / Fold change vs veh, ACTR2 / RFU, PPP3R1 / Fold change vs veh, PPP3R1 / RFU, PIK3R1 / Fold change vs veh, PIK3R1 / RFU, HNRNPA1 / Fold change vs veh, HNRNPA1 / RFU, RNF170 / Fold change vs veh, RNF170 / RFU, ZNF28 / Fold change vs veh, ZNF28 / RFU, RNGTT / Fold change vs veh, RNGTT / RFU, OGT / Fold change vs veh, OGT / RFU, BRD1 / Fold change vs veh, BRD1 / RFU, MARS / Fold change vs veh, MARS / RFU, ZNF655 / Fold change vs veh, ZNF655 / RFU, FAHD1 / Fold change vs veh, FAHD1 / RFU, BDP1 / Fold change vs veh, BDP1 / RFU, LRRCC1 / Fold change vs veh, LRRCC1 / RFU, ARID1A / Fold change vs veh, ARID1A / RFU, ZNF146 / Fold change vs veh, ZNF146 / RFU, ZNF330 / Fold change vs veh, ZNF330 / RFU, GPN3 / Fold change vs veh, GPN3 / RFU, C9orf123 / Fold change vs veh, C9orf123 / RFU, N4BP2L2 / Fold change vs veh, N4BP2L2 / RFU, ARFIP1 / Fold change vs veh, ARFIP1 / RFU, FAM179B / Fold change vs veh, FAM179B / RFU, BCL10 / Fold change vs veh, BCL10 / RFU, UHRF1BP1L / Fold change vs veh, UHRF1BP1L / RFU, BET1 / Fold change vs veh, BET1 / RFU, CNOT2 / Fold change vs veh, CNOT2 / RFU, ZNF268 / Fold change vs veh, ZNF268 / Fold change vs veh, ZNF507 / RFU, DGCR2 / Fold change vs veh, DGCR2 / RFU, WDSUB1 / Fold change vs veh, WDSUB1 / Fold change vs veh, HSP90B1 /// MIR3652 / RFU, ADSS / Fold change vs veh, ADSS / RFU, GK / Fold change vs veh, GK / RFU, ZNF148 / Fold change vs veh, ZNF148 / RFU, TAF9 / Fold change vs veh, TAF9 / RFU, SLC1A5 / Fold change vs veh, SLC1A5 / RFU, SLMO2 / Fold change vs veh, SLMO2 / RFU, ABCC4 / Fold change vs veh, ABCC4 / RFU, LOC101060439 /// RAP1B / Fold change vs veh, LOC101060439 /// RAP1B / RFU, RFX7 / Fold change vs veh, RFX7 / RFU, GTPBP10 / Fold change vs veh, GTPBP10 / RFU, CNEP1R1 / Fold change vs veh, CNEP1R1 / RFU, BIVM-ERCC5 /// ERCC5 / Fold change vs veh, BIVM-ERCC5 /// ERCC5 / RFU, ILF3 / Fold change vs veh, ILF3 / RFU 11762660_at / Fold change /veh 11762660_at / RFU VCAN (11757783_s_at) / Fold change /veh VCAN (11757783_s_at) / RFU DDX43 (11728927_at) / Fold change /veh DDX43 (11728927_at) / RFU KRT8 (11758188_x_at) / Fold change /veh KRT8 (11758188_x_at) / RFU NKD1 (11759106_at) / Fold change /veh NKD1 (11759106_at) / RFU SRD5A1 (11742802_a_at) / Fold change /veh SRD5A1 (11742802_a_at) / RFU TPSAB1 /// TPSB2 (11721975_s_at) / Fold change /veh TPSAB1 /// TPSB2 (11721975_s_at) / RFU GSTM3 (11746129_a_at) / Fold change /veh GSTM3 (11746129_a_at) / RFU IL23R (11737362_x_at) / Fold change /veh IL23R (11737362_x_at) / RFU TMEM51 (11727254_a_at) / Fold change /veh TMEM51 (11727254_a_at) / RFU PIWIL2 (11732686_x_at) / Fold change /veh PIWIL2 (11732686_x_at) / RFU ORM1 (11744905_x_at) / Fold change /veh ORM1 (11744905_x_at) / RFU CCDC152 (11743942_at) / Fold change /veh CCDC152 (11743942_at) / RFU ECM1 (11717891_a_at) / Fold change /veh ECM1 (11717891_a_at) / RFU IL23R (11748794_a_at) / Fold change /veh IL23R (11748794_a_at) / RFU TNFAIP8L3 (11732012_x_at) / Fold change /veh TNFAIP8L3 (11732012_x_at) / RFU MBOAT4 (11741988_at) / Fold change /veh MBOAT4 (11741988_at) / RFU 11764193_at / Fold change /veh 11764193_at / RFU TMEM53 (11763286_at) / Fold change /veh TMEM53 (11763286_at) / RFU MAGEB2 (11727129_at) / Fold change /veh MAGEB2 (11727129_at) / RFU TMEM200A (11744735_a_at) / Fold change /veh TMEM200A (11744735_a_at) / RFU CCDC152 (11751479_a_at) / Fold change /veh CCDC152 (11751479_a_at) / RFU FAM211A (11726209_a_at) / Fold change /veh FAM211A (11726209_a_at) / RFU RGS16 (11746705_a_at) / Fold change /veh RGS16 (11746705_a_at) / RFU VCAN (11755009_s_at) / Fold change /veh VCAN (11755009_s_at) / RFU RHOB (11743442_s_at) / Fold change /veh RHOB (11743442_s_at) / RFU RGS16 (11720943_a_at) / Fold change /veh RGS16 (11720943_a_at) / RFU RGS16 (11720944_at) / Fold change /veh RGS16 (11720944_at) / RFU, VPS4B / Fold change vs veh, VPS4B / RFU, CREB1 / Fold change vs veh, CREB1 / RFU, DNAJC13 / Fold change vs veh, DNAJC13 / RFU, GNAQ / Fold change vs veh, GNAQ / RFU, CDK5R1 / Fold change vs veh, CDK5R1 / RFU, ZRANB3 / Fold change vs veh, ZRANB3 / RFU, CUL4A / Fold change vs veh, CUL4A / RFU, CCNY / Fold change vs veh, CCNY / RFU, UFL1 / Fold change vs veh, UFL1 / RFU, COG3 / Fold change vs veh, COG3 / RFU, DIAPH2 / Fold change vs veh, DIAPH2 / RFU, SKA2 / Fold change vs veh, SKA2 / RFU, AFF3 / Fold change vs veh, AFF3 / RFU, LMF1 / Fold change vs veh, LMF1 / RFU, IPO11 / Fold change vs veh, IPO11 / RFU, DFFB / Fold change vs veh, DFFB / RFU, FOXP1 / Fold change vs veh, FOXP1 / RFU, CARD8 / Fold change vs veh, CARD8 / RFU, STRN3 / Fold change vs veh, STRN3 / RFU, ADK / Fold change vs veh, ADK / RFU, RASSF2 / Fold change vs veh, RASSF2 / RFU, WIPF1 / Fold change vs veh, WIPF1 / RFU, LARP1B / Fold change vs veh, LARP1B / RFU, RASA1 / Fold change vs veh, RASA1 / RFU, RB1 / Fold change vs veh, RB1 / RFU, PPFIA1 / Fold change vs veh, PPFIA1 / RFU, MAT2A / Fold change vs veh, MAT2A / RFU, CCT5 / Fold change vs veh, CCT5 / RFU, WDR92 / Fold change vs veh, WDR92 / RFU, CUX1 / Fold change vs veh, CUX1 / RFU, TTC7A / Fold change vs veh, TTC7A / RFU, TMEM135 / Fold change vs veh, TMEM135 / RFU, DEPTOR / Fold change vs veh, DEPTOR / RFU, CPM / Fold change vs veh, CPM / RFU, DNAJB6 / Fold change vs veh, DNAJB6 / RFU, CACNA2D3 / Fold change vs veh, CACNA2D3 / RFU, DTX4 / Fold change vs veh, DTX4 / RFU, TFCP2 / Fold change vs veh, TFCP2 / RFU, GMCL1 /// GMCL1P1 / Fold change vs veh, GMCL1 /// GMCL1P1 / RFU, AEBP2 / Fold change vs veh, AEBP2 / RFU, SNHG1 /// SNORD22 /// SNORD25 /// SNORD26 /// SNORD27 /// SNORD28 /// SNORD29 /// SNORD31 / Fold change vs veh, SNHG1 /// SNORD22 /// SNORD25 /// SNORD26 /// SNORD27 /// SNORD28 /// SNORD29 /// SNORD31 / Fold change (Aza/veh), C12orf56 (ProbeSet 11735607_a_at) / Fold change (ACY-1035/veh), C12orf56 (ProbeSet 11735607_a_at) / Fold change (Aza/veh), FGFR1OP (ProbeSet 11751329_s_at) / Fold change (ACY-1035/veh), FGFR1OP (ProbeSet 11751329_s_at) / Fold change (Aza/veh), VPS36 (ProbeSet 11739960_a_at) / Fold change (ACY-1035/veh), VPS36 (ProbeSet 11739960_a_at) / RFU SYPL1 (11715823_x_at) / Fold change /veh SYPL1 (11715823_x_at) / RFU IGFBP7 (11715501_s_at) / Fold change /veh IGFBP7 (11715501_s_at) / RFU REEP3 (11722064_at) / Fold change /veh REEP3 (11722064_at) / RFU IGLL1 (11728026_x_at) / Fold change /veh IGLL1 (11728026_x_at): dose or concentration left out as unconfirmed
Conditions: ProbeSet 11758440_s_at; LIST B

Nc1ncn([C@@H]2O[C@H](CO)[C@@H](O)[C@H]2O)c(=O)n1 [azacitidine]
Fold change vs veh, RFX7: 0.86
